Test results: US10544103B2, “5-HT2 antagonists” (ANAMAR AB, priority 2015, dated 2020)

Assays:
5-HT2B receptor [1] = target: T1, 5-HT2B receptor (Homo sapiens, UniProt P41595); test: 5-HT2B receptor binding, 3H-LSD ligand displacement assay; conditions: for inhibition at 0.1 µM: 0.1 uM compound; for inhibition at 1 µM: 1 uM compound; for inhibition at 0.001 µM: 0.001 uM compound; for inhibition at 0.01 µM: 0.01 uM compound
T1 construct: host or cells: CHO-K1
Experimental: 5-HT2B receptor binding (performed at Eurofins Panlabs Taiwan, Ltd.) to human receptor protein expressed in CHO-K1 cells was determined in a ligand displacement assay using ^3H-lysergic acid diethylamide (LSD) as radioligand and ketanserine as a standard reference compound. Data is presented as % displacement of radioligand at indicated compound concentrations, see Table 1 and Table 2.

5-HT2B receptor [2] = target: T1, 5-HT2B receptor; test: 5-HT2B receptor antagonism, inhibition of 5-HT stimulated IP-1 accumulation (HTRF) in CHO-K1 cells; assay type: cell-based; conditions: % inhibition of 5-HT (5 nM) induced effect
Experimental: (§1) 5-HT2B receptor antagonism (performed at Eurofins Panlabs Taiwan, Ltd.) was determined in CHO-K1 cells expressing human receptor protein as inhibition of 5-HT (5 nM) stimulated IP-1 accumulation measured by HTRF quantitation. SB 206553 was used as a standard reference compound. The antagonistic response is expressed as % inhibition of the 5-HT induced effect.

5-HT2B receptor [3] = target: T1, 5-HT2B receptor; test: 5-HT2B receptor agonism, IP-1 accumulation in CHO-K1 cells without prior 5-HT stimulation; assay type: cell-based; conditions: % of IP-1 accumulation induced by 5-HT (1 uM)
Experimental: as §1
5-HT2B receptor agonism (performed at Eurofins Panlabs Taiwan, Ltd.) was determined in the same model as described above in Ex. 117. without prior stimulation with 5-HT. The agonistic response is expressed as % of the IP-1 accumulation induced by 5-HT (1 uM) stimulation.

T1 sequence (P41595 whole entry): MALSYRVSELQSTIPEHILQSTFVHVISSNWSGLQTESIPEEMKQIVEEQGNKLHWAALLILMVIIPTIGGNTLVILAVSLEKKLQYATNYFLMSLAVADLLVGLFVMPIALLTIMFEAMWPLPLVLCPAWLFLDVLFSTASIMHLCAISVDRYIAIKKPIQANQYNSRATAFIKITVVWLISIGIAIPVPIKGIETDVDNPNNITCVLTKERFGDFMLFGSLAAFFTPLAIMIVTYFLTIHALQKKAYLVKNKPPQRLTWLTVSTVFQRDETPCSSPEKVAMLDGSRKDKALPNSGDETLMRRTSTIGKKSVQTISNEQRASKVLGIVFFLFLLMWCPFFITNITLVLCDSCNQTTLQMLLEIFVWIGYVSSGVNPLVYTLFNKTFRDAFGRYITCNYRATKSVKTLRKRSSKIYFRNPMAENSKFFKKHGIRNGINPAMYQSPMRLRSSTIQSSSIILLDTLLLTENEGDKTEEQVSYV

| Compound | inhibition at 0.1 µM (5-HT2B receptor [1]) | inhibition at 1 µM (5-HT2B receptor [1]) | inhibition at 0.001 µM (5-HT2B receptor [2]) | inhibition at 0.01 µM (5-HT2B receptor [2]) | inhibition at 0.1 µM (5-HT2B receptor [2]) | inhibition at 1 µM (5-HT2B receptor [2]) | inhibition at 10 µM (5-HT2B receptor [2]) | activation at 0.001 µM (5-HT2B receptor [3]) | activation at 0.01 µM (5-HT2B receptor [3]) | activation at 0.1 µM (5-HT2B receptor [3]) | activation at 1 µM (5-HT2B receptor [3]) | activation at 10 µM (5-HT2B receptor [3]) | inhibition at 0.001 µM (5-HT2B receptor [1]) | inhibition at 0.01 µM (5-HT2B receptor [1]) | inhibition at 0.0001 µM (5-HT2B receptor [2]) | activation at 0.0001 µM (5-HT2B receptor [3]) | inhibition at 10 µM (5-HT2B receptor [1]; 10 uM compound) |
| --- | --- | --- | --- | --- | --- | --- | --- | --- | --- | --- | --- | --- | --- | --- | --- | --- | --- |
| N=C(NCc1ccccc1)N1CCC(c2ccccc2O)=N1 [Example 22, N-Benzyl-3-(2-hydroxyphenyl)-4,5-dihydro-1H-pyrazole-1-carboximidamide] | 89% | 102% | 14% | 28% | 88% | 108% | 110% | -5% | -10% | -1% | -3% | -2% |  |  |  |  |  |
| N=C(NCc1ccccc1)N1CCC(c2ccccc2Cl)=N1 [Example 21, N-Benzyl-3-(2-chlorophenyl)-4,5-dihydro-1H-pyrazole-1-carboximidamide] | 59% | 96% | -6% | 10% | 41% | 104% | 113% | 3% | -5% | -9% | -6% | -13% |  |  |  |  |  |
| C[C@@H]1CN(C(=N)NCc2ccccc2)N=C1c1cccc(Cl)c1O (single isomer, unassigned) [Example 76, (R)*—N-Benzyl-3-(3-chloro-2-hydroxyphenyl)-4-methyl-4,5-dihydro-1H-pyrazole-1-carboximidamide] | 103% |  | 95% | 99% | 99% | 95% |  | 1% | 3% | -1% |  |  | 91% | 101% | 79% | 0% |  |
| COc1ccccc1C1=NN(C(=N)N)CC1 [Example 1, 3-(2-Methoxyphenyl)-4,5-dihydro-1H-pyrazole-1-carboximidamide] |  |  |  | 2% | 0% | 72% | 107% |  | -1% | -8% | -5% | -1% |  |  |  |  |  |
| C[C@@H]1CN(C(=N)N)N=C1c1ccccc1O (single isomer, unassigned) [Example 38] | 98% | 102% | 27% | 75% | 100% | 102% |  | -1% | -2% | 0% | -2% |  | 19% | 76% | 23% | -2% | 104% |
| C[C@@H]1CN(C(=N)N)N=C1c1cccc(Cl)c1O (single isomer, unassigned) [Example 73, (R)*-3-(3-chloro-2-hydroxyphenyl)-4-methyl-4,5-dihydro-1H-pyrazole-1-carboximidamide] | 99% |  | 87% | 97% | 97% | 98% |  | 4% | 3% | 3% |  |  | 49% | 83% | 29% | 3% |  |
| N=C(N)N1CCC(c2cccc3ccccc23)=N1 [Example 9, 3-(Naphthalen-1-yl)-4,5-dihydro-1H-pyrazole-1-carboximidamide] | 81% | 99% | 6% | 20% | 76% | 103% | 116% | -3% | -8% | -8% | -13% | -5% |  |  |  |  |  |
| CC1CC(c2cccc3ccccc23)=NN1C(=N)N (centres unmarked) [Example 23, 5-methyl-3-(naphthalen-1-yl)-4,5-dihydro-1H-pyrazole-1-carboximidamide] | 68% | 97% |  |  |  |  |  |  |  |  |  |  |  |  |  |  |  |
| COc1ccc(CNC(=N)N2CC(C)C(c3ccccc3O)=N2)cc1Cl (centres unmarked) [Example 62, N-(3-chloro-4-methoxybenzyl)-3-(2-hydroxyphenyl)-4-methyl-4,5-dihydro-1H-pyrazole-1-carboximidamide] |  |  |  |  |  |  |  |  |  |  |  |  | 27% | 72% |  |  |  |
| COc1c(Cl)cccc1C1=NN(C(=N)Nc2ccc(Cl)cc2)CC1C (centres unmarked) [Example 110, 3-(3-Chloro-2-methoxyphenyl)-N-(4-chlorophenyl)-4-methyl-4,5-dihydro-1H-pyrazole-1-carboximidamide] | 97% |  |  |  |  |  |  |  |  |  |  |  | 41% | 83% |  |  |  |
| COc1c(Cl)cccc1C1=NN(C(=N)Nc2ccc(F)cc2)CC1C (centres unmarked) [Example 108, 3-(3-Chloro-2-methoxyphenyl)-N-(4-fluorophenyl)-4-methyl-4,5-dihydro-1H-pyrazole-1-carboximidamide] | 101% |  |  |  |  |  |  |  |  |  |  |  | 29% | 83% |  |  |  |
| COc1ccc(CNC(=N)N2CC(C)C(c3ccccc3O)=N2)cc1OC (centres unmarked) [Example 60, N-(3,4-Dimethoxybenzyl)-3-(2-hydroxyphenyl)-4-methyl-4,5-dihydro-1H-pyrazole-1-carboximidamide] |  |  |  |  |  |  |  |  |  |  |  |  | 6% | 28% |  |  |  |
